The values that follow come from article PMC8869242 (Biomedicines, 2022).

Data set [1] in a line: Tolerability in tumor-bearing mice (body weight, behavior, relative organ weight, histopathology, deaths).
The test system of data set [2] is MDA-MB-231 cells. Nature of the data set: Cell proliferation assay (label-free live cell counting), MDA-MB-231. The format is cell-based, human. How it is done:
The human triple-negative breast cancer cell line MDA-MB-231 (ATCC HTB-26) (absence of estrogen and progesterone receptors, […]) and the non-cancerous breast cell line MCF-12A (ATCC CRL-10782) were purchased from ATCC (Manassas, VA, USA). MDA-MB-231 cells were cultured in DMEM-HG cell growth medium supplemented with 10% (v/v) FBS. MCF-12A cells were cultured in DMEM/F12 medium supplemented with 20 ng/mL hEGF, 100 ng/mL cholera toxin, 0.01 mg/mL bovine insulin, 500 ng/mL hydrocortisone and 5% (v/v) horse serum. Cells were cultured in monolayers in a sterile environment at 37 °C with 5% CO2 humidified atmosphere. Under these conditions, the population doubling time was 25.5 ± 0.9 h and 20.6 ± 3.1 h for MDA-MB-231 and MCF-12A cells, respectively. The cell cultures were routinely screened for mycoplasma contamination, yielding negative results.
Cells were seeded in 96-well microplates at the cell density 1.5 × 10^4 cells/cm^2 (final volume 200 µL/well) and left 24 h to attach. […] Label-free kinetic live monitoring of cell proliferation was performed using LionheartFX automated microscope (BioTek, Winooski, VT, USA) with direct image acquisition of cells in microplates at 0, 24, 48 and 72 h post-addition of the tested compounds. Acquired 4X images were processed using Gen 5 Image Analysis software (BioTek, Winooski, VT, USA) that allows for identification and counting of individual cells per image. The normalized cell growth (%) was calculated using the following formula: C(t) = [(Number of Treated Cells(t) − Number of Treated Cells(0))/(Number of Untreated Cells(t) − Number of Untreated Cells(0))] × 100, where C(t) is the percent of net cell growth over time, Number of Treated Cells(t) is the count of cells treated with drug at each time point, Number of Treated Cells(0) is the count cells treated with drug at time 0 h, Number of Untreated Cells(t) is the count of untreated (control) cells at each time point, Number of Untreated Cells(0) is the count of untreated (control) cells at time 0 h.

Data set [3] deals with Ehrlich ascites carcinoma (EAC). The conditions noted are these: 4 mg/kg, cited from earlier work; for tumor volume reduction: two injections per week for 2 weeks (cumulative 16 mg/kg); for deaths during treatment: two injections per week for 2 weeks.
The test system of data set [4] is MDA-MB-231. Conditions: cited from earlier work.
For data set [5], the system named is breast cancer cells. The conditions noted are these: cited from earlier work.
For data set [6] the following is noted: mice; cited from earlier work.
Data set [7] in a line: Hematological and plasma biochemical analyses in tumor-bearing mice. The format is in vivo. Conditions: Pd2Spm 5 mg/kg/day, cisplatin 2 mg/kg/day, end of study. How it is done: Red blood cells (RBC), hemoglobin (Hb), hematocrit (Hct), mean corpuscular volume (MCV) and mean corpuscular hemoglobin (MCH) were analyzed in a small aliquot of whole blood using ABX Micros 60 automated analyzer (Horiba ABX SAS, Montpellier, France). The remaining blood was centrifuged at 900× g for 15 min, and plasma was separated into aliquots and frozen at −80 °C for biochemical assays. Plasma parameters were analyzed using commercial kits for aspartate aminotransferase—AST (AST CP, A11A01629), alanine transaminase—ALT (ALT CP, A11A01627), cholesterol (CHOL CP, A11A01634), creatinine (Creatinine 120 CP, A11A01868), glucose (Glucose PAP CP, A11A01668), total protein (Total protein CP, A11A01669), triglycerides (Triglycerides CP, A11A01640) and urea (Urea CP, A11A01641). All parameters were determined with an automated analyzer Pentra 400 (ABX Horiba diagnostics, Montpellier, France).

Data set [8] deals with MDA-MB-468 TNBC cells. The conditions noted are these: cited from earlier work.
Setting [9] is: Pd2Spm 5 mg/kg/day, cisplatin 2 mg/kg/day.
Setting [10] is: tumor-bearing mice, i.p. 5 days, Pd2Spm 5 mg/kg/day, cisplatin 2 mg/kg/day.
Where [11] appears, read: MDA-MB-231, 24 h of incubation, n = 4.
Setting [12] is: MDA-MB-231, 24 h of incubation, n = 4, read-out: IC50 in µM [95% CI].
Where [13] appears, read: MDA-MB-231, 48 h of incubation, n = 4.
Setting [14] is: MDA-MB-231, 48 h of incubation, n = 4, read-out: IC50 in µM [95% CI].
The mark [15] stands for this setting: MDA-MB-231, 72 h of incubation, n = 4.
The mark [16] stands for this setting: MDA-MB-231, 72 h of incubation, n = 4, read-out: IC50 in µM [95% CI].
[17] abbreviates: organ weight/body weight × 100%, mean ± SEM, n = 7, cisplatin 2 mg/kg/day, Pd2Spm 5 mg/kg/day.

The structures appear in SMILES notation. Where two headings read alike, the source gives them in different places.

As for `N.N.[Cl][Pt][Cl]` [Cisplatin, cis-dichlorodiammine platinum(II), reference compound], in data set [1] (setting [9]), the “liver histopathology (glycogen accumulation, PAS)” value is “swollen, pale and finely vacuolated cytoplasm due to intracellular accumulation of glycogen”. Besides, the “kidney histopathology (perirenal adipose tissue)” value in data set [1] (compared to vehicle-treated animals) is “decreased perirenal adipose tissue”. For the same compound, the body weight entry in data set [1] (setting [10]) is “slower body weight recovery”. For the same compound, the entries for the “logIC50 ± SEM” value in data set [2] (setting [11]), in data set [2] (setting [13]) and in data set [2] (setting [15]) were −5.459 ± 0.036, −6.005 ± 0.027 and −6.043 ± 0.020, respectively. Moreover, the IC50 (commonly the concentration at which inhibition is half-maximal) is 3.5 µM in data set [2] (setting [12]), 1 µM in data set [2] (setting [14]) and 0.9 µM in data set [2] (setting [16]). Moreover, the tumor volume reduction in data set [3] (first study) is reported as 36.4%; in data set [3] (second study) it was 46.7%. Further, the deaths during treatment result in data set [3] (first study) is on record as “two associated deaths”; in data set [3] (second study), “no associated deaths”.
For `NCCCNCCCCNCCCN.[Cl][Pd][Cl].[Cl][Pd][Cl]` [Pd2Spm, dinuclear palladium(II)-spermine chelate], in data set [1] (setting [9]), the “liver histopathology (glycogen accumulation, PAS)” value is on record as “not observed”. In data set [1] (cumulative dose of 25 mg/kg (5 mg/kg/day for 5 consecutive days)), the deaths during treatment result was “no associated deaths”. In data set [1] (setting [17]), the “Relative Organ Weight (%), Brain” value was 1.79 ± 0.16%; the “Relative Organ Weight (%), Heart” value came to 0.53 ± 0.06%; the “Relative Organ Weight (%), Kidneys” value is listed as 1.43 ± 0.10%; the “Relative Organ Weight (%), Liver” value was determined as 6.14 ± 0.29%. For the same compound, in data set [1] (setting [17]), the “Relative Organ Weight (%), Lungs” value is listed as 0.77 ± 0.08% and the “Relative Organ Weight (%), Spleen” value is 0.32 ± 0.11%. In data set [1] (setting [10]), the body weight entry is recorded as “did not show changes in body weight” and the “signs of general toxicity” value is “no such adverse effects were observed”. Further, in data set [4], the IC50 values result was “within a low micromolar range”. In data set [5], the “amount accumulated in breast cancer cells relative to cisplatin” value was “approximately four times lower”. Further, in data set [6], the “accumulation in major organs relative to cisplatin” value is “lower accumulation in major organs” and the “serum terminal half-life relative to cisplatin” value is “very similar serum terminal half-life to cisplatin”. Besides, in data set [7], the “hematologic analysis (RBC, Hb, Htc, MCV, MCH) versus vehicle” value was “no significant deviations” and the “plasma biochemical analysis (urea, creatinine, glucose, AST, ALT, total proteins, triglycerides, total cholesterol) versus vehicle” value is listed as “did not reveal changes”. Besides, the IC50 values entry in data set [8] is listed as “within a low micromolar range”. Moreover, the IC50 in data set [2] (MDA-MB-231, 24-72 h, read-out: IC50 values (range over incubation times)) lay within 7.3 to 8.3 µM. Besides, in data set [2] (setting [11]), the “logIC50 ± SEM” value is listed as −5.081 ± 0.024. For the same compound, the IC50 in data set [2] (setting [12]) was 8.3 µM. In data set [2] (setting [13]), the “logIC50 ± SEM” value was −5.105 ± 0.022. Further, the IC50 in data set [2] (setting [14]) was determined as 7.9 µM. For the same compound, the “logIC50 ± SEM” value in data set [2] (setting [15]) is reported as −5.137 ± 0.021. Further, in data set [2] (setting [16]), the IC50 worked out at 7.3 µM.
